Source: patent US11066455B2, “Tmem100 peptides and variants thereof and their use in treating or preventing diseases or conditions” (The Johns Hopkins University, priority 2014, dated 2021)
* marks the point of attachment. Myristoyl = CCCCCCCCCCCCCC(=O)*

B1: Tmem100: 134-amino acid two-transmembrane protein, regulator of TRPA1 (SEQ ID NO: 1/2), expressed in cells (protein, listed as Homo sapiens, listed as Mus musculus)
chain 1: MTEEPIKEILGAPKAHMAATMEKSPKSEVVITTVPLVSEIQLMAATGGTELSCYRCIIPFAVVVFIAGIVVTAVAYSFNSHGSIISIFGLVVLSSGLFLLASSALCWKVRQRSKKAKRRESQTALVANQRSLFA
chain 2: MTEESTKENLGAPKSPTPVTMEKNPKREVVVTTGPLVSEVQLMAATGGAELSCYRCIIPFAVVVFITGIVVTAVAYSFNSHGSIISIFGLVLLSSGLFLLASSALCWKVRQRNKKVKRRESQTALVVNQRCLFA

Tests used:
[1] = test system: MO-induced pain in wild-type mice; test: Mustard oil injection in hindpaw: acute nocifensive behavior and von Frey mechanical hyperalgesia; type: in vivo, mouse
Procedure: Mice were placed in a transparent plastic box (4.5×5×10 cm) on a metal mesh and acclimatized for 30 minutes prior to testing. Each mouse was tested more than 5 times at a specific force manually, and the threshold was determined by the lowest force needed to elicit responses more than 50% of the time.
Mice were injected intradermally in the hind paw with 6 μL of 0.2% mustard oil (Sigma-Aldrich 377430) with Hamilton needles (80300). The mice were placed in a plexiglass cylinder, and the total time spent licking and flinching was recorded for the first 10 minutes after injection. Thirty and sixty minutes after injection, the mice were assayed with von Frey filaments for mechanical hyperalgesia.
The sequence from the last 28 amino acids of the C-terminus of the Tmem100-3Q mutant protein was synthesized and myristoylated at its N-terminus (myr-[…]-COOH) (SEQ ID NO: 8) by Twentyfirst Century Biochemicals. […] For the calcium imaging assay, the peptides were added to the calcium imaging buffer with a final concentration of 200 nM and incubated for at least […] at room temperature. For the mice behavioral assays, the peptides (5 μL, 2 mM) were injected subcutaneously in the hindpaw at least 30 minutes before testing. For the rat behavior assays, human T100-3Q (h-T100), a palmitoylated cell permeable peptide mutated based on the C terminus of human sequence in Tmem100, was applied. […]

TRPA1 = test: Calcium imaging of HEK293T cells expressing TRPA1 and TRPV1 (MO or CA); type: cell-based; details: HEK293T TRPA1+TRPV1 with Tmem100
Procedure: Calcium imaging assays were performed as previously described (Liu et al., 2009). Cells were loaded with 2 μM fura 2-acetomethoxy ester (Molecular Probes) for 30 min in the dark at room temperature or for 45 minutes at 37° C. for DRG and cell lines, respectively. After washing, cells were imaged at 340 and 380 nm excitation to detect intracellular free calcium under a fluorescent microscope (Nikon Eclipse TE2000-S) and Lambda 10B shutter (Sutter Instrument). The cells were bathed in calcium imaging buffer (pH 7.45, 130 mM NaCl, 3 mM KCl, 2.5 mM CaCl2, 10 mM HEPES, 10 mM glucose, 1.2 mM NaHCO3, with sucrose to increase osmolarity to 290 mOsm). The reagents and buffers were applied through a gravity perfusion system at a rate of […], including mustard oil (Sigma 377430), cinnamaldehyde (Sigma C80687), menthol (Sigma M2780), and capsaicin (Sigma M2028). Cells with high baseline 340/380 values (>1.5) were excluded for analysis. For DRG neurons, IB4 staining was performed in the chamber with the dilution of 1:200 (Molecular Probes 121412) for 160 seconds before washing off at the end of each test. Images were processed and analyzed with NIS-Elements BR 2.30 software (Nikon). A responsive cell was defined as one that with greater than a 20% increase in the 340/380 ratio above the baseline. Intracellular calibration for calcium was performed as previously described (Akopian et al., 2007). The data was analyzed with the experimenter blinded to the genotypes or constructs transfected.
DRG from 3 to 4-week old mice were collected in cold DH10 medium (90% DMEM/F-12, 10% FBS, 100 U/ml penicillin, and 100 μg/ml Streptomycin, Gibco) and treated with enzyme solution in HBSS containing collagenase (1.65 mg/mL, Worthington CLS I) and dispase (3.55 mg/mL, GIBCO 17105-041) at 37° C. for 30 minutes. After trituration and centrifugation, cells were resuspended in DH10, plated on glass coverslips coated with poly-D-lysine (0.5 mg/ml, Stoughton, Mass.) and laminin (10 μg/ml, Invitrogen), and cultured overnight in an incubator at 37° C. The neurons were tested within 24 hours. HEK293T, COS-7, and CHO cells were cultured in a medium consisting of 90% DMEM, 10% FBS, 100 U/mL penicillin, and 100 μg/ml Streptomycin. GlutaMAX (Gibco 35050-061) was also added for CHO cells. For calcium imaging, the cells were plated on glass coverslips coated with poly-D-lysine (0.5 mg/ml, Stoughton, Mass.). In the HEK cell studies the denominator is the cells expressing both TRPA1, TRPV1, and the designated constructs (i.e. Tmem100 or Tmem100-3Q mutant). mCherry:TRPV1:Tmem100 was transfected in 1:8:8 ratio into TRPA1 stable cell line (obtained from N. Tigue from GlaxoSmithKline) and used mCherry as the marker for the cells expressing the constructs 18 hours after transfection with Lipofectamine 2000. The transfection efficiency for Tmem100+TRPV1+TRPA1 triple-positive cells is 27±3%. This efficiency was determined by mCherry(+) divided by total number of cells in the bright fields.
The sequence from the last 28 amino acids of the C-terminus of the Tmem100-3Q mutant protein was synthesized and myristoylated at its N-terminus (myr-[…]-COOH) (SEQ ID NO: 8) by Twentyfirst Century Biochemicals. […] For the calcium imaging assay, the peptides were added to the calcium imaging buffer with a final concentration of 200 nM and incubated for at least […] at room temperature. For the mice behavioral assays, the peptides (5 μL, 2 mM) were injected subcutaneously in the hindpaw at least 30 minutes before testing. For the rat behavior assays, human T100-3Q (h-T100), a palmitoylated cell permeable peptide mutated based on the C terminus of human sequence in Tmem100, was applied. The sequence is Palmitoyl-[…]-COOH (SEQ ID NO: 7).

| Molecule | MO-induced mechanical hyperalgesia (mechanical threshold) ([1]; peptide 5 μl of 2 mM pre-treatment) [g] | MO-induced acute nocifensive behavior (time) ([1]; peptide 5 μl of 2 mM pre-treatment in hindpaw) [s] | percentage of cells responsive to MO (TRPA1; 100 nM MO) [%] | percentage of cells responsive to CA (TRPA1; 5 μM CA) [%] |
| --- | --- | --- | --- | --- |
| myr-QRVLEQVLQNWSRRANVKQAQKFQVKCT-COOH (Myristoyl-QRVLEQVLQNWSRRANVKQAQKFQVKCT-OH; SMILES CCCCCCCCCCCCCC(=O)N[C@@H](CCC(N)=O)C(=O)N[C@@H](CCCNC(=N)N)C(=O)N[C@H](C(=O)N[C@@H](CC(C)C)C(=O)N[C@@H](CCC(=O)O)C(=O)N[C@@H](CCC(N)=O)C(=O)N[C@H](C(=O)N[C@@H](CC(C)C)C(=O)N[C@@H](CCC(N)=O)C(=O)N[C@@H](CC(N)=O)C(=O)N[C@@H](Cc1c[nH]c2ccccc12)C(=O)N[C@@H](CO)C(=O)N[C@@H](CCCNC(=N)N)C(=O)N[C@@H](CCCNC(=N)N)C(=O)N[C@@H](C)C(=O)N[C@@H](CC(N)=O)C(=O)N[C@H](C(=O)N[C@@H](CCCCN)C(=O)N[C@@H](CCC(N)=O)C(=O)N[C@@H](C)C(=O)N[C@@H](CCC(N)=O)C(=O)N[C@@H](CCCCN)C(=O)N[C@@H](Cc1ccccc1)C(=O)N[C@@H](CCC(N)=O)C(=O)N[C@H](C(=O)N[C@@H](CCCCN)C(=O)N[C@@H](CS)C(=O)N[C@H](C(=O)O)[C@@H](C)O)C(C)C)C(C)C)C(C)C)C(C)C) [scrambled] | 0.1 ± 0.03 | 80 ± 9 | – | – |
| B1 | – | – | 20 | 30 |
